Measured values published in US20190022039A1, “COMPOUND HAVING ENHANCING ACTIVITY FOR GLUCAGON-LIKE PEPTIDE-1 RECEPTOR ACTIONS” (AJINOMOTO CO., INC., priority 2016, published 2019).
pEC50: −log10 of the molar value.

Molecular target: T1, human GLP-1R (Homo sapiens, UniProt P43220)
T1 construct: expressed in transfected cells; host or cells: PEAK RAPID-derived Gα15-trans48 LD stably expressing cells (PRG48), transiently transfected with Lipofectamine 2000
Experiment: GLP-1 receptor in vitro calcium assay (intracellular free calcium concentration change induced via GLP-1 receptor)
Assay type: cell-based
Conditions: for pEC50: PRG48 cells transfected with human GLP-1R, compound added with 250 pM GLP-1, Ca2+ response ΔF/F, read-out: Ca EC50 value; for GLP-1 receptor action enhancing activity (vs BETP): intensity compared to BETP, activity of BETP as 1
Experimental: The supernatant was removed by centrifugation (1,200 rpm, 3 min), and the cells were suspended at 4×10^6 cells/mL in 5% FBS DMEM/Ham's F-12. 1.0 mL thereof was seeded in a 15 cm dish and cultured (37° C., 5% CO2) overnight. The next day, the medium of the cultured PRG48 cells was replaced with 5% FBS DMEM/Ham's F-12 medium (30 mL), human GLP-1R gene mixture solution (GLP-1R/pc.DNA3.1(+) 60 μg) prepared using 6.0 mL of Opti-MEM (invitrogen) and 120 μL of Lipofectamin 2000 (invitrogen) was slowly added to the cells, and cultured (37° C., 5% CO2) for 6 hr to introduce the gene. […] The cells were counted, suspended at 0.5×10^6 cells/mL in 5% FBS DMEM/Ham's F-12 medium, and seeded in each well of D-Lysine coat 96 well plate (BD Bioscience) at 7.0×10^4 cells. After static adhesion at room temperature for 1 hr, the cells were cultured overnight (37° C., 5% CO2). The medium in the Cultured 96 well was entirely discarded, 150 μL of intracellular calcium measurement staining solution Calcium assay kit Express (Molecular Device) diluted 80-fold with Assay buffer (20 mM HEPES, 146 mM NaCl, 1 mM MgSO4, 1.39 mM glucose, 1 mM CaCl2, 2.5 mM Probenecid, 0.05% Casein Enzymatic Hydrolysate) was added, and the mixture was stood at 37° C. for 30 min, and then at room temperature for 45 min to perform staining. After staining, 250 pM GLP-1 and the compound were added and Ca^2+ response was observed by using FDSSμCELL (Hamamatsu Photonics K.K.). Each evaluation compound was dissolved in DMSO, further diluted with Assay buffer and used.
For evaluation, the fluorescence values (Ex480:Em540) before and after addition were measured, and changes in the intracellular free calcium concentration produced via GLP-1R receptor by the addition were quantitatively examined. For the measurement and analysis of the fluorescence values, a soft (FDSS7000EX) attached to the FDSSμCELL was used, and ΔF/F value ((maximum fluorescence value after stimulation−minimum fluorescence value after stimulation)/fluorescence value before stimulation) was calculated. Using the obtained ΔF/F values, EC50 value was calculated by Prism5.

T1 sequence (P43220 24-463): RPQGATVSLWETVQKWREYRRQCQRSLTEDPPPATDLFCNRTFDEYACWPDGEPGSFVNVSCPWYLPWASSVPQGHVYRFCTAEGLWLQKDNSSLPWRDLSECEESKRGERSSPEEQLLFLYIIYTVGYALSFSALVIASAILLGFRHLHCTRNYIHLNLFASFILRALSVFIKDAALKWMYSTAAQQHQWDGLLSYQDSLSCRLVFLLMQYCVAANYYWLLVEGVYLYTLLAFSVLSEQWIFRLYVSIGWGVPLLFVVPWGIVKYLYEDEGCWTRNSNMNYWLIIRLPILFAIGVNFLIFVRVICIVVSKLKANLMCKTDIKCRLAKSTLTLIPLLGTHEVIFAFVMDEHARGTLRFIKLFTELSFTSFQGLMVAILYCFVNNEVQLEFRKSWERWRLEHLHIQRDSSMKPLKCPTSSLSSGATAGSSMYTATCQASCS

| Compound | pEC50 | GLP-1 receptor action enhancing activity (vs BETP) |
| --- | --- | --- |
| Cc1ccc(S(=O)(=O)Nc2ccc(NC(=O)N[C@H](CC(C)C)C(=O)NC3CCCCCC3)cc2)cc1 [Compound 44] | 5.89 | 19 |
| Cc1ccc(S(=O)(=O)Nc2ccc(NC(=O)N[C@H](CC3CCCCC3)C(=O)NCCC3CCCCC3)cc2)cc1 [Compound 45] | 7.66 | 1149 |
| Cc1ccc(S(=O)(=O)Nc2ccc(NC(=O)N[C@H](Cc3ccc(Cl)cc3)C(=O)NCCC3CCCCC3)cc2)cc1 [Compound 46] | 7.80 |  |
| Cc1ccc(S(=O)(=O)Nc2ccc(NC(=O)N[C@H](Cc3c[nH]c4ccccc34)C(=O)NCCC3CCCCC3)cc2)cc1 [Compound 47] | 6.92 | 208 |
| Cc1ccc(S(=O)(=O)Nc2ccc(NC(=O)N[C@H](CC(C)C)C(=O)NCCC3CCCCC3)cc2)cc1 [Compound 48] | 6.55 | 92 |
| CCCCC(CC)CNC(=O)[C@H](Cc1c[nH]c2ccccc12)NC(=O)Nc1ccc(NS(=O)(=O)c2ccc(C(C)(C)C)cc2)cc1 (stereo partly drawn) [Compound 49] | 8.00 | 2534 |
| CCCCC(CC)CNC(=O)[C@H](CC(C)C)NC(=O)Nc1ccc(NS(=O)(=O)c2ccc(C(C)(C)C)cc2)cc1 (stereo partly drawn) [Compound 51] | 8.05 | 2786 |
| Cc1ccc(S(=O)(=O)Nc2ccc(NC(=O)N[C@H](Cc3ccccc3)C(=O)NC3CCCCCCC3)cc2)cc1 [Compound 52] | 6.77 | 144 |
| CCCCCCN(C)C(=O)[C@@H](Cc1ccccc1)NC(=O)Nc1ccc(NS(=O)(=O)c2ccc(C)cc2)cc1 [Compound 53] | 6.55 | 91 |
| CCCCCC(C)NC(=O)[C@@H](Cc1ccccc1)NC(=O)Nc1ccc(NS(=O)(=O)c2ccc(C)cc2)cc1 (stereo partly drawn) [Compound 54] | 6.74 | 137 |
| Cc1ccc(S(=O)(=O)Nc2ccc(NC(=O)N[C@H](Cc3ccccc3)C(=O)NC(C)CCCC(C)C)cc2)cc1 (stereo partly drawn) [Compound 55] | 7.35 | 558 |
| CC(C)CCCC(C)NC(=O)[C@H](CC1CCCCC1)NC(=O)Nc1ccc(NS(=O)(=O)c2ccc(C(C)(C)C)cc2)cc1 (stereo partly drawn) [Compound 56] | 8.42 | 6569 |
| CCCCCCCCNC(=O)[C@H](CC1CCCCC1)NC(=O)Nc1ccc(NS(=O)(=O)c2ccc(C(C)(C)C)cc2)cc1 [Compound 57] | 8.47 | 7462 |
| CC(C)CCCC(C)NC(=O)[C@H](Cc1ccc(Cl)cc1)NC(=O)Nc1ccc(NS(=O)(=O)c2ccc(C(C)(C)C)cc2)cc1 (stereo partly drawn) [Compound 58] | 8.34 |  |
| CCCCCCCCNC(=O)[C@H](Cc1ccc(Cl)cc1)NC(=O)Nc1ccc(NS(=O)(=O)c2ccc(C(C)(C)C)cc2)cc1 [Compound 59] | 8.24 |  |
| Cc1ccc(S(=O)(=O)Nc2ccc(NC(=O)N[C@H](Cc3ccccc3)C(=O)NC[C@H]3CCC4CC3C4(C)C)cc2)cc1 (stereo partly drawn) [Compound 60] | 7.35 | 560 |
| Cc1ccc(S(=O)(=O)Nc2ccc(NC(=O)N[C@H](Cc3ccccc3)C(=O)NC(C)(C)C34CC5CC(CC(C5)C3)C4)cc2)cc1 [Compound 61] | 7.82 | 1710 |
| Cc1ccc(S(=O)(=O)Nc2ccc(NC(=O)N[C@H](Cc3ccccc3)C(=O)OC(C)(C)C)cc2)cc1 [Compound 62, tert-butyl (2R)-3-phenyl-2-{[4-(p-tolylsulfonylamino)phenyl]carbamoylamino}propanoate] | 6.03 | 27 |

| Compound | pEC50 | GLP-1 receptor action enhancing activity (vs BETP) |
| --- | --- | --- |
| Cc1ccc(S(=O)(=O)Nc2ccc(NC(=O)N[C@@H](Cc3ccccc3)C(=O)OC(C)(C)C)cc2)cc1 [Compound 63] | 5.72 | 13 |
| Cc1ccc(S(=O)(=O)Nc2ccc(NC(=O)N[C@H](CC(C)C)C(=O)OC(C)(C)C)cc2)cc1 [Compound 64] | 5.80 | 15 |
| Cc1ccc(S(=O)(=O)Nc2ccc(NC(=O)N[C@@H](CC(C)C)C(=O)OC(C)(C)C)cc2)cc1 [Compound 65] | 5.70 | 13 |
| Cc1ccc(S(=O)(=O)Nc2ccc(NC(=O)N[C@@H](Cc3ccc(OC(C)(C)C)cc3)C(=O)OC(C)(C)C)cc2)cc1 [Compound 66] | 6.13 | 34 |
| Cc1ccc(S(=O)(=O)Nc2ccc(NC(=O)N[C@@H](Cc3c[nH]c4ccccc34)C(=O)OC(C)(C)C)cc2)cc1 [Compound 67] | 6.18 | 38 |
| Cc1ccc(S(=O)(=O)Nc2ccc(NC(=S)N[C@H](Cc3ccccc3)C(=O)OC(C)(C)C)cc2)cc1 [Compound 68] | 5.92 | 22 |
| CCCOc1ccc(-c2noc([C@H](Cc3ccccc3)NC(=O)Nc3ccc(NS(=O)(=O)c4ccc(C)cc4)cc3)n2)cc1 [Compound 69] | 7.62 | 1068 |
| Cc1ccc(S(=O)(=O)Nc2ccc(NC(=O)N[C@H](Cc3ccccc3)c3nc(C(C)(C)C)no3)cc2)cc1 [Compound 70] | 5.89 | 20 |
| CCCc1ccc(S(=O)(=O)Nc2ccc(NC(=O)N[C@@H](Cc3ccccc3)C(=O)OC(C)(C)C)cc2)cc1 [Compound 71] | 6.40 | 64 |
| CC(C)c1ccc(S(=O)(=O)Nc2ccc(NC(=O)N[C@@H](Cc3ccccc3)C(=O)OC(C)(C)C)cc2)cc1 [Compound 72] | 6.17 | 37 |
| CC(C)(C)OC(=O)[C@H](Cc1ccccc1)NC(=O)Nc1ccc(NS(=O)(=O)c2ccc(C(C)(C)C)cc2)cc1 [Compound 73] | 6.51 | 83 |
| CC(C)(C)OC(=O)[C@H](Cc1ccccc1)NC(=O)Nc1ccc(NS(=O)(=O)Cc2ccccc2)cc1 [Compound 74] | 5.72 | 14 |
| CCc1ccc(S(=O)(=O)Nc2ccc(NC(=O)N[C@@H](Cc3ccccc3)C(=O)OC(C)(C)C)cc2)cc1 [Compound 75] | 6.21 | 41 |
| Cc1ccc(S(=O)(=O)Nc2ccc(NC(=O)N[C@H](CC(=O)OC(C)(C)C)Cc3ccccc3)cc2)cc1 [Compound 76] | 5.80 | 16 |
| Cc1cccc(S(=O)(=O)Nc2ccc(NC(=O)N[C@@H](Cc3ccccc3)C(=O)OC(C)(C)C)cc2)c1 [Compound 77] | 5.80 | 16 |
| Cc1ccccc1S(=O)(=O)Nc1ccc(NC(=O)N[C@@H](Cc2ccccc2)C(=O)OC(C)(C)C)cc1 [Compound 78] | 5.77 | 15 |
| Cc1ccc(S(=O)(=O)Nc2cccc(NC(=O)N[C@@H](Cc3ccccc3)C(=O)OC(C)(C)C)c2)cc1 [Compound 79] | 5.82 | 17 |
| Cc1cc(C)c(S(=O)(=O)Nc2ccc(NC(=O)N[C@@H](Cc3ccccc3)C(=O)OC(C)(C)C)cc2)c(C)c1 [Compound 80] | 6.42 | 67 |
